# Measured values: US9278996B2, “Dolastatin-10 derivative, method of producing the same and anticancer drug composition containing the same” (CELLTRION, INC., priority 2012, dated 2016)
# Test system: breast cancer (BT-474)
# Experiment: Anticancer activity assay (WST-8 cell growth), BT-474
# Assay type: cell-based
# Conditions: Homo sapiens, BT-474, 96 h, read-out: IC50 (nM) BT-474
# Procedure: The compounds of the present invention were assayed for inhibitory activity against 7 cancer cell lines as breast cancer (BT-474), human epithelial cancer (A-431), non-small cell lung cancer (NCI-H460), colon cancer (HT-29), colon cancer (SW-620), breast cancer (MDA-MB-231) and breast cancer (MCF-7).
# Briefly, a suspension of each cancer cell line was serially diluted, and plated at a density of 2˜3×10^3 cells/well into 96-well microplates, followed by incubation at 37° C. for 4 day in a 5% CO2 atmosphere. Cell growth in a monolayer was measured using WST-8 reagemt (Dojindo, Japan).
# IC50 values of the compounds against the cancer cell lines were calculated as compound concentrations at which the cells were grown by 50% OD of the control.
row,SMILES,IC50 [nM]
1,"CC[C@H](C)[C@@H]([C@@H](CC(=O)N1C[C@H](OC)C[C@@H]1[C@H](OC)[C@@H](C)C(=O)N[C@H](C)C(=NO)c1cccc(OC)c1)OC)N(C)C(=O)[C@@H](NC(=O)[C@H](C(C)C)N(C)C)C(C)C [Compound I-20, (S)-2-((S)-2-(dimethylamino)-3-methylbutaneamido)-N-((3R,4S,5S)-1-((2R,4R)-2-((1R,2R)-3-(((R)-1-(hydroxyimino)-1-(3-methoxyphenyl)propan-2-yl)amino)-1-methoxy-2-methyl-3-oxopropyl)-4-methoxypyrrolidin-1-yl)-3-methoxy-5-methyl-1-oxoheptan-4-yl)-N,3-dimethylbutanamide]",0.47
2,"CC[C@H](C)[C@@H]([C@@H](CC(=O)N1C[C@H](OC)C[C@@H]1[C@H](OC)[C@@H](C)C(=O)N[C@H](C)C(=O)c1c(F)cccc1F)OC)N(C)C(=O)[C@@H](NC(=O)[C@@H](NC)C(C)C)C(C)C [Compound I-18, (S)—N-((3R,4S,5S)-1-((2R,4R)-2-((1R,2R)-3-(((R)-1-(2,6-difluorophenyl)-1-oxopropan-2-yl)amino)-1-methoxy-2-methyl-3-oxopropyl)-4-methoxypyrrolidin-1-yl)-3-methoxy-5-methyl-1-oxoheptan-4-yl)-N,3-dimethyl-2-((S)-3-methyl-2-(methylamino)butaneamido)butanamide]",0.88
3,"CC[C@H](C)[C@@H]([C@@H](CC(=O)N1C[C@H](OC)C[C@@H]1[C@H](OC)[C@@H](C)C(=O)N[C@H](C)C(=NO)c1ccc(F)cc1)OC)N(C)C(=O)[C@@H](NC(=O)[C@H](C(C)C)N(C)C)C(C)C [Compound I-21, (S)-2-((S)-2-(dimethylamino)-3-methylbutaneamido)-N-((3R,4S,5S)-1-((2R,4R)-2-((1R,2R)-3-(((R)-1-(4-fluorophenyl)-1-(hydroxyimino)propan-2-yl)amino)-1-methoxy-2-methyl-3-oxopropyl)-4-methoxypyrrolidin-1-yl)-3-methoxy-5-methyl-1-oxoheptan-4-yl)-N,3-dimethylbutanamide]",0.59
4,"CC[C@H](C)[C@@H]([C@@H](CC(=O)N1C[C@@H](O)C[C@H]1[C@H](OC)[C@@H](C)C(=O)N[C@@H](C)C(=O)c1ccc(F)cc1)OC)N(C)C(=O)[C@@H](NC(=O)[C@@H](NC)C(C)C)C(C)C [Compound I-43, (2S)—N-((3R,4S)-1-((2S,4S)-2-((1R,2R)-3-(((S)-1-(4-fluorophenyl)-1-oxopropan-2-yl)amino)-1-methoxy-2-methyl-3-oxopropyl)-4-hydroxypyrrolidin-1-yl)-3-methoxy-5-methyl-1-oxoheptan-4-yl)-N,3-dimethyl-2-((S)-3-methyl-2-(methylamino)butaneamido)butanamide]",6.43
5,"CC[C@H](C)[C@@H]([C@@H](CC(=O)N1C[C@H](OC)C[C@H]1[C@H](OC)[C@@H](C)C(=O)N[C@@H](C)C(=O)c1ccccc1)OC)N(C)C(=O)[C@@H](NC(=O)[C@@H](NC)C(C)C)C(C)C [Compound I-7, (2 S)—N-((3R,4S)-3-methoxy-1-((2S,4R)-4-methoxy-2-((1R,2R)-1-methoxy-2-methyl-3-oxo-3-(((S)-1-oxo-1-phenylpropan-2-yl)amino)propyl)pyrrolidin-1-yl)-5-methyl-1-oxoheptan-4-yl)-N,3-dimethyl-2-((S)-3-methyl-2-(methylamino)butaneamido)butanamide]",0.62
6,"CC[C@H](C)[C@@H]([C@@H](CC(=O)N1C[C@H](OC)C[C@@H]1[C@H](OC)[C@@H](C)C(=O)N[C@H](C)C(=O)c1ccc(F)cc1)OC)N(C)C(=O)[C@@H](NC(=O)[C@@H](NC)C(C)C)C(C)C [Compound I-11, (S)—N-((3R,4S,5 S)-1-((2R,4R)-2-((1R,2R)-3-(((R)-1-(4-fluorophenyl)-1-oxopropan-2-yl)amino)-1-methoxy-2-methyl-3-oxopropyl)-4-methoxypyrrolidin-1-yl)-3-methoxy-5-methyl-1-oxoheptan-4-yl)-N,3-dimethyl-2-((S)-3-methyl-2-(methylamino)butaneamido)butanamide]",0.78
7,CC[C@H](C)[C@@H]([C@@H](CC(=O)N1C[C@H](OC)CC1[C@H](OC)[C@@H](C)C(=O)NCC(=O)c1ccc(F)cc1C)OC)N(C)C(=O)[C@@H](NC(=O)[C@@H](NC)C(C)C)C(C)C (stereo partly drawn) [Compound I-27],0.5
8,"CC[C@H](C)[C@@H]([C@@H](CC(=O)N1C[C@H](OC)C[C@@H]1[C@H](OC)[C@@H](C)C(=O)NCC(=NO)c1cc(Br)ccc1C)OC)N(C)C(=O)[C@@H](NC(=O)[C@H](C(C)C)N(C)C)C(C)C [Compound I-22, (S)—N-((3R,4S,5S)-1-((2R,4R)-2-((1R,2R)-3-((2-(5-bromo-2-methylphenyl)-2-(hydroxyimino)ethyl)amino)-1-methoxy-2-methyl-3-oxopropyl)-4-methoxypyrrolidin-1-yl)-3-methoxy-5-methyl-1-oxoheptan-4-yl)-2-((S)-2-(dimethylamino)-3-methylbutaneamido)-N,3-dimethylbutanamide]",0.91
9,"CC[C@H](C)[C@@H]([C@@H](CC(=O)N1C[C@H](OC)C[C@H]1[C@H](OC)[C@@H](C)C(=O)N[C@H](C)C(=O)c1ccccc1)OC)N(C)C(=O)[C@@H](NC(=O)[C@@H](NC)C(C)C)C(C)C (stereo in doubt) [Compound I-6, (2 S)—N-((3R,4S)-3-methoxy-1-((2R,4R)-4-methoxy-2-((1R,2R)-1-methoxy-2-methyl-3-oxo-3-(((R)-1-oxo-1-phenylpropan-2-yl)amino)propyl)pyrrolidin-1-yl)-5-methyl-1-oxoheptan-4-yl)-N,3-dimethyl-2-((S)-3-methyl-2-(methylamino)butaneamido)butanamide]",0.32
10,"CC[C@H](C)[C@@H]([C@@H](CC(=O)N1C[C@H](OC)C[C@H]1[C@H](OC)[C@@H](C)C(=O)NCC(=O)c1ccc(C)cc1)OC)N(C)C(=O)[C@@H](NC(=O)[C@@H](NC)C(C)C)C(C)C [Compound I-29, (S)—N-((3R,4S,5S)-3-methoxy-1-((2S,4R)-4-methoxy-2-((1R,2R)-1-methoxy-2-methyl-3-oxo-3-((2-oxo-2-(p-tolyl)ethyl)amino)propyl)pyrrolidin-1-yl)-5-methyl-1-oxoheptan-4-yl)-N,3-dimethyl-2-((S)-3-methyl-2-(methylamino)butaneamido)butanamide]",0.61
11,"CC[C@H](C)[C@@H]([C@@H](CC(=O)N1C[C@H](OC)C[C@H]1[C@H](OC)[C@@H](C)C(=O)NCCc1cccs1)OC)N(C)C(=O)[C@@H](NC(=O)[C@@H](NC)C(C)C)C(C)C [Compound I-39, (2S)—N-((3R,4S)-3-methoxy-1-((2S,4R)-4-methoxy-2-((1R,2R)-1-methoxy-2-methyl-3-oxo-3-((2-(thiophen-2-yl)ethyl)amino)propyl)pyrrolidin-1-yl)-5-methyl-1-oxoheptan-4-yl)-N,3-dimethyl-2-((S)-3-methyl-2-(methylamino)butaneamido)butanamide]",0.67
12,"CC[C@H](C)[C@@H]([C@@H](CC(=O)N1C[C@@H](OC)C[C@@H]1[C@H](OC)[C@@H](C)C(=O)NCCc1ccccc1)OC)N(C)C(=O)[C@@H](NC(=O)[C@H](C(C)C)N(C)C)C(C)C [Compound I-10, (S)-2-((S)-2-(dimethylamino)-3-methylbutaneamido)-N-((3R,4S,5S)-3-methoxy-1-((2R,4S)-4-methoxy-2-((1R,2R)-1-methoxy-2-methyl-3-oxo-3-(phenethylamino)propyl)pyrrolidin-1-yl)-5-methyl-1-oxoheptan-4-yl)-N,3-dimethylbutanamide]",0.24
13,"CC[C@H](C)[C@@H]([C@@H](CC(=O)N1C[C@H](OC)C[C@H]1[C@H](OC)[C@@H](C)C(=O)N[C@@H](C)C(N)c1ccccc1)OC)N(C)C(=O)[C@@H](NC(=O)[C@H](C(C)C)N(C)C)C(C)C (mixture of isomers) [Compound I-37, (2S)—N-((3R,4S)-1-((2S,4R)-2-((1R,2R)-3-(((2S)-1-amino-1-phenylpropan-2-yl)amino)-1-methoxy-2-methyl-3-oxopropyl)-4-methoxypyrrolidin-1-yl)-3-methoxy-5-methyl-1-oxoheptan-4-yl)-2-((S)-2-(dimethylamino)-3-methylbutaneamido)-N,3-dimethylbutanamide]",2.82
14,"CC[C@H](C)[C@@H]([C@@H](CC(=O)N1C[C@@H](O)C[C@H]1[C@H](OC)[C@@H](C)C(=O)NCCc1c(F)cccc1F)OC)N(C)C(=O)[C@@H](NC(=O)[C@@H](NC)C(C)C)C(C)C [Compound I-42, (2S)—N-((3R,4S)-1-((2S,4S)-2-((1R,2R)-3-((2,6-difluorophenethyl)amino)-1-methoxy-2-methyl-3-oxopropyl)-4-hydroxypyrrolidin-1-yl)-3-methoxy-5-methyl-1-oxoheptan-4-yl)-N,3-dimethyl-2-((S)-3-methyl-2-(methylamino)butaneamido)butanamide]",0.74
15,"CC[C@H](C)[C@@H]([C@@H](CC(=O)N1C[C@H](OC)C[C@@H]1[C@H](OC)[C@@H](C)C(=O)N[C@@H](C)C(=O)c1cc(F)cc(F)c1)OC)N(C)C(=O)[C@@H](NC(=O)[C@@H](NC)C(C)C)C(C)C [Compound I-16, (S)—N-((3R,4S,5S)-1-((2R,4R)-2-((1R,2R)-3-(((S)-1-(3,5-difluorophenyl)-1-oxopropan-2-yl)amino)-1-methoxy-2-methyl-3-oxopropyl)-4-methoxypyrrolidin-1-yl)-3-methoxy-5-methyl-1-oxoheptan-4-yl)-N,3-dimethyl-2-((S)-3-methyl-2-(methylamino)butaneamido)butanamide]",0.65
